For this experiment, the target named is T1, ERAP1 (Homo sapiens, UniProt Q9NZ08).
T1 construct: Purified ERAP1(37-941)-10His (ERAP1); 10His (C)
As to the kind of experiment: ERAP1 mediated hydrolysis of an amide substrate (10-mer inhibition assay), biochemical system. The settings on record: 10-mer substrate, incubated at 23° C. for 1 h, excitation 279 nm and emission 355 nm; read-out: IC50 vs Decapeptide WRVYEKC(Dnp)ALK-acid (where Dnp is Dinitrophenyl maleimide) (10-mer). From the text:
This peptide has minimal fluorescence as the N-terminal tryptophan residue's fluorescence is quenched by the dinitrophenol (DNP) residue within the peptide. However, as ERAP1 hydrolyses the N-terminal amide bond and tryptophan is released this internal quenching is lost and the reaction is monitored by the increase in tryptophan fluorescence over the course of the assay. For the purposes of this application this assay is referred to as the “1 Omer inhibition assay” and compound potencies are calculated and expressed as 1050 as would be familiar to a person skilled in the art.
Biological Assay 1: ERAP1 Mediated Hydrolysis of an Amide Substrate Measured in a Biochemical System
• 1× Assay buffer (AB): 25 mM Bis-tris propane, 0.05% w/v Hydroxypropylmethylcellulose pH 7.75 made with Optima grade water • Decapeptide WRVYEKC(Dnp)ALK-acid (where Dnp is Dinitrophenyl maleimide) (10-mer) • L-Leucine 7-amido-4-methylcoumarin (L-AMC) • Purified ERAP1(37-941)-10His (ERAP1)
12.5 μL ERAP1 enzyme in 1×AB was combined with 250 nL test compound in DMSO. 12.5 μL of either 240 μM L-AMC in 1×AB or 100 μM 10-mer in 1×AB was added to the reaction and incubated at 23° C. for 1 h. For detection, plates were read at excitation 365 nm and emission 442 nm (L-AMC) or excitation 279 nm and emission 355 nm (10-mer). Compound IC50 was determined using a 4-parameter equation.

T1 sequence (Q9NZ08 37-941): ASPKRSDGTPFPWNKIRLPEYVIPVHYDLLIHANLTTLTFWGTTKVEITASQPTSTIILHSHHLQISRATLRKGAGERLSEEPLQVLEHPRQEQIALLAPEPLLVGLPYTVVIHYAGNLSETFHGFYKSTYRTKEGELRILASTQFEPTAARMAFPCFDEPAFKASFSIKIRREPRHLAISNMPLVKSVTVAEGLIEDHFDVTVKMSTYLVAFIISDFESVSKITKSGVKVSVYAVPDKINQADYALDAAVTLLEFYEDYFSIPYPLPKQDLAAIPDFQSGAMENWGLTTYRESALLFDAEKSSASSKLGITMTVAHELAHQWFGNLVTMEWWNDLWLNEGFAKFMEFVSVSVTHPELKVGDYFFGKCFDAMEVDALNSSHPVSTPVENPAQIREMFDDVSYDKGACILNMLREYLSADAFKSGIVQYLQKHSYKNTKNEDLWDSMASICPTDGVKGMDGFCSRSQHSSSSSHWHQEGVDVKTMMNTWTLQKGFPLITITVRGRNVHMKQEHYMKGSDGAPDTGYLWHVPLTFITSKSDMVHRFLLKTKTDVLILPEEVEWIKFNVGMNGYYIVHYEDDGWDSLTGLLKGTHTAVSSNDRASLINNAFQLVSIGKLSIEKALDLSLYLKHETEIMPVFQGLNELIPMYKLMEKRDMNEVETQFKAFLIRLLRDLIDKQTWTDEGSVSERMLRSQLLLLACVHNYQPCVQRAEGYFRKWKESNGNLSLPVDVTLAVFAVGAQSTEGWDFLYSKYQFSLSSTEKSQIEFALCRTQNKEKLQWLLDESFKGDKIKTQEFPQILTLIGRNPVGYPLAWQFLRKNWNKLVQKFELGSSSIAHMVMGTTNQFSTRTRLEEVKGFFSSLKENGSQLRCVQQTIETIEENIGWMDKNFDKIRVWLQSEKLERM

As to “3-chloro-2-(1H-tetrazol-1-yl)-7,8,9,9a,10,11,12,13-octahydro-6H, 20H-dibenzo[b,f]pyrido[1,2-h][1]oxa[4]thia[5,8]diazacyclotridecine-17-carboxylic acid 19,19-dioxide [Example 54]”, the IC50 was below 250 nM.
Then `O=C(O)c1ccc2c(c1)S(=O)(=O)Nc1cc(C(F)(F)F)ccc1N1CCCCC1C/C=C/CO2` (racemic) [Example 1, (E)-2-(trifluoromethyl)-7,8,9,9a,10,13-hexahydro-6H, 20H-dibenzo[b,f]pyrido[1,2-h][1]oxa[4]thia[5,8]diazacyclotridecine-17-carboxylic acid 19,19-dioxide], with below 250 nM; and `N#Cc1ccc2c(c1)NS(=O)(=O)c1cc(C(=O)O)ccc1OCCC1CCCCN21` (racemic) [Example 2, 2-cyano-7,8,9,9a,10,11-hexahydro-6H, 18H-dibenzo[b,f]pyrido[1,2-h][1]oxa[4]thia[5,8]diazacycloundecine-15-carboxylic acid 17,17-dioxide], with above 1000 nM.
Take `N#Cc1ccc2c(c1)NS(=O)(=O)c1cc(C(=O)O)ccc1OCC1CCCCN21` (racemic) [Example 3, 8-cyano-12,13,14,15,15a,16-hexahydro-6H-dibenzo[b,f]pyrido[1,2 h][1,4,5,8]oxathiadiazecine-3-carboxylic acid 5,5-dioxide]: the IC50 was below 250 nM.
Take `N#Cc1ccc2c(c1)NS(=O)(=O)c1cc(C(=O)O)ccc1OCCCCC1CCCCN21` (racemic) [Example 4, 2-cyano-7,8,9,9a,10,11,12,13-octahydro-6H,20H-dibenzo[b,f]pyrido[1,2-h][1]oxa[4]thia[5,8]diazacyclotridecine-17-carboxylic acid 19,19-dioxide]: the 50% inhibitory concentration (IC50) is below 250 nM.
For `N#Cc1cc2c(cc1Cl)N1CCCCC1COc1ccc(C(=O)O)cc1S(=O)(=O)N2` (racemic) [Example 14, 9-chloro-8-cyano-12,13,14,15,15a,16-hexahydro-6H-dibenzo[b,f]pyrido[1,2-h][1,4,5,8]oxathiadiazecine-3-carboxylic acid 5,5-dioxide], the half-inhibitory concentration (IC50) was below 250 nM.
In the case of `N#Cc1ccc2c(c1)NS(=O)(=O)c1cc(C(=O)O)ccc1OC/C=C/CC1CCCCN21` (racemic) [Example 15, (E)-2-cyano-7,8,9,9a,10,13-hexahydro-6H, 20H-dibenzo[b,f]pyrido[1,2-h][1]oxa[4]thia[5,8]diazacyclotridecine-17-carboxylic acid 19,19-dioxide], the IC50 is below 250 nM.
Consider `CS(=O)(=O)c1ccc2c(c1)NS(=O)(=O)c1cc(C(=O)O)ccc1OCC1CCCCN21` (racemic) [Example 18, 8-(methylsulfonyl)-12,13,14,15,15a,16-hexahydro-6H-dibenzo[b,f]pyrido[1,2-h][1,4,5,8]oxathiadiazecine-3-carboxylic acid 5,5-dioxide], for which the 50% inhibitory concentration (IC50) lay within 250 to 1000 nM.
With `N#Cc1cc2c(cc1Cl)N1CCCCC1CCCOc1ccc(C(=O)O)cc1S(=O)(=O)N2` (racemic) [Example 21, 3-chloro-2-cyano-6,7,8,9,9a,10,11,12-octahydro-19H-dibenzo[b,f]pyrido[1,2-h][1]oxa[4]thia[5,8]diazacyclododecine-16-carboxylic acid 18,18-dioxide] the figure was below 250 nM.
Then `N#Cc1cc2c(cc1Cl)N1CCCCC1CCCCOc1ccc(C(=O)O)cc1S(=O)(=O)N2` (racemic) [Example 22, 3-chloro-2-cyano-7,8,9,9a,10,11,12,13-octahydro-6H, 20H-dibenzo[b,f]pyrido[1,2-h][1]oxa[4]thia[5,8]diazacyclotridecine-17-carboxylic acid 19,19-dioxide], with below 250 nM; and `CS(=O)(=O)c1ccc2c(c1)NS(=O)(=O)c1cc(C(=O)O)ccc1OCCCCC1CCCCN21` (racemic) [Example 23, 2-(methylsulfonyl)-7,8,9,9a,10,11,12,13-octahydro-6H, 20H-dibenzo[b,f]pyrido[1,2-h][1]oxa[4]thia[5,8]diazacyclotridecine-17-carboxylic acid 19,19-dioxide], with 250 to 1000 nM; and `N#Cc1cc2c(cc1F)N1CCCCC1COc1ccc(C(=O)O)cc1S(=O)(=O)N2` (racemic) [Example 24, 8-cyano-9-fluoro-12,13,14,15,15a,16-hexahydro-6H-dibenzo[b,f]pyrido[1,2-h][1,4,5,8]oxathiadiazecine-3-carboxylic acid 5,5-dioxide], with below 250 nM.
`CS(=O)(=O)c1cc2c(cc1F)N1CCCCC1COc1ccc(C(=O)O)cc1S(=O)(=O)N2` (racemic) [Example 25, 9-fluoro-8-(methylsulfonyl)-12,13,14,15,15a,16-hexahydro-6H-dibenzo[b,f]pyrido[1,2-h][1,4,5,8]oxathiadiazecine-3-carboxylic acid 5,5-dioxide]: the half-inhibitory concentration (IC50) was below 250 nM.
With `N#Cc1cc2c(cc1F)N1CCCCC1CCCCOc1ccc(C(=O)O)cc1S(=O)(=O)N2` (racemic) [Example 28, 2-cyano-3-fluoro-7,8,9,9a,10,11,12,13-octahydro-6H,20H-dibenzo[b,f]pyrido[1,2-h][1]oxa[4]thia[5,8]diazacyclotridecine-17-carboxylic acid 19,19-dioxide] the figure was below 250 nM; with `N#Cc1cc2c(cc1F)N1CCCCC1CCCOc1ccc(C(=O)O)cc1S(=O)(=O)N2` (racemic) [Example 29, 2-cyano-3-fluoro-6,7,8,9,9a,10,11,12-octahydro-19H-dibenzo[b,f]pyrido[1,2-h][1]oxa[4]thia[5,8]diazacyclododecine-16-carboxylic acid 18,18-dioxide], below 250 nM; with `N#Cc1cc2c(cc1Cl)N1CCCCC1C/C=C/COc1ccc(C(=O)O)cc1S(=O)(=O)N2` (racemic) [Example 30, (E)-3-chloro-2-cyano-7,8,9,9a,10,13-hexa hydro-6H, 20H-dibenzo[b,f]pyrido[1,2-h][1]oxa[4]thia[5,8]diazacyclotridecine-17-carboxylic acid 19,19-dioxide], below 250 nM.
Then `CS(=O)(=O)c1cc2c(cc1F)N1CCCCC1CCCCOc1ccc(C(=O)O)cc1S(=O)(=O)N2` (racemic) [Example 31, 3-fluoro-2-(methylsulfonyl)-7,8,9,9a,10,11,12,13-octahydro-6H, 20H-dibenzo[b,f]pyrido[1,2-h][1]oxa[4]thia[5,8]diazacyclotridecine-17-carboxylic acid 19,19-dioxide], with below 250 nM.
In the case of `CN1c2cc(S(C)(=O)=O)ccc2N2CCCCC2CCCOc2ccc(C(=O)O)cc2S1(=O)=O` (racemic) [Example 34, 19-methyl-2-(methylsulfonyl)-6,7,8,9,9a,10,11,12-octahydro-19H-dibenzo[b,f]pyrido[1,2-h][1]oxa[4]thia[5,8]diazacyclododecine-16-carboxylic acid 18,18-dioxide], the IC50 is below 250 nM.
`N#Cc1cc2c(cc1Cl)N1CCCCC1/C=C/COc1ccc(C(=O)O)cc1S(=O)(=O)N2` (racemic) [Example 35, (E)-3-chloro-2-cyano-6,7,8,9,9a,12-hexahydro-19H-dibenzo[b,f]pyrido[1,2-h][1]oxa[4]thia[5,8]diazacyclododecine-16-carboxylic acid 18,18-dioxide]: the IC50 was below 250 nM.
On to `CS(=O)(=O)c1ccc2c(c1)NS(=O)(=O)c1cc(C(=O)O)ccc1OCCCC1CCCCN21` (racemic) [Example 36, 2-(methylsulfonyl)-6,7,8,9,9a,10,11,12-octahydro-19H-dibenzo[b,f]pyrido[1,2-h][1]oxa[4]thia[5,8]diazacyclododecine-16-carboxylic acid 18,18-dioxide], for which the half-maximal inhibitory concentration (IC50) was below 250 nM.
With `CS(=O)(=O)c1cc2c(cc1F)N1CCCCC1CCCOc1ccc(C(=O)O)cc1S(=O)(=O)N2` (racemic) [Example 51, 3-fluoro-2-(methylsulfonyl)-6,7,8,9,9a,10,11,12-octahydro-19H-dibenzo[b,f]pyrido[1,2-h][1]oxa[4]thia[5,8]diazacyclododecine-16-carboxylic acid 18,18-dioxide] the figure was 250 to 1000 nM; with `N#Cc1cc2c(cc1Cl)N1CCCCC1COCCOc1ccc(C(=O)O)cc1S(=O)(=O)N2` (racemic) [Example 65, 3-chloro-2-cyano-6,7,8,9,9a,10,12,13-octahydro-20H-dibenzo[e,i]pyrido[1,2-k][1,4]dioxa[7]thia[8,11]diazacyclotridecine-17-carboxylic acid 19,19-dioxide], below 250 nM.
On to `N#Cc1cc2c(cc1Cl)N1CCCCC1CNCCOc1ccc(C(=O)O)cc1S(=O)(=O)N2` (racemic) [Example 66, 3-chloro-2-cyano-7,8,9,9a,10,11,12,13-octahydro-6H, 20H-dibenzo[b,f]pyrido[1,2-h][1]oxa[4]thia[5,8,11]triazacyclotridecine-17-carboxylic acid 19,19-dioxide], for which the concentration for half-maximal inhibition (IC50) is above 1000 nM.
Then `N#Cc1ccc2c(c1)NS(=O)(=O)c1cc(C(=O)O)ccc1OCCC1CCCCN21` (single isomer, unassigned) [Example 6, 2-cyano-7,8,9,9a,10,11-hexahydro-6H, 18H-dibenzo[b,f]pyrido[1,2-h][1]oxa[4]thia[5,8]diazacycloundecine-15-carboxylic acid 17,17-dioxide], with above 1000 nM.

(Values after patent publication US20240300976A1, “COMPOUNDS AS MODULATORS OF ENDOPLASMIC RETICULUM AMINOPEPTIDASE 1 (ERAP1)” (GREY WOLF THERAPEUTICS LIMITED, priority 2020, published 2024).)
